The source of these data is publication PMC4506051, “Pharmacokinetic Profiles of Active Ingredients and Its Metabolites Derived from Rikkunshito, a Ghrelin Enhancer, in Healthy Japanese Volunteers: A Cross-Over, Randomized Study” (PLoS ONE, 2015).

Data set [1] in a line: Exploratory trial: plasma concentration of rikkunshito ingredients after single oral rikkunshito 7.5 g. It counts as in vivo. The following applies: for Plasma concentration, 0 h: 0 h (preadministration), single oral rikkunshito 7.5 g. The procedure, abridged: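 Healthy volunteers took a single oral rikkunshito dose of 7.5 g. Heparinized forearm blood was drawn at 0, 0.5, 1, 2, 4 and 8 h, with urine pooled pre-dose, 0–4 h and 4–8 h. Analytes were quantified in plasma by LC–MS/MS with internal standards, after solid-phase extraction and, where applied, 2 h β-glucuronidase treatment at 37°C.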

A short description of data set [2]: Method validation: stability in standard, stock and working solution.
A further data set relates to ghrelin secretion. To be noted: cited from earlier work.
For data set [3], the system named is cisplatin-induced anorexia model. The following applies: oral administration; cisplatin-induced anorexia model; cited from earlier work.
The test system of a further data set is 5-HT2BR. On the set-up: method as in PMID 18439428. To be noted: cited from earlier work.
Data set [4] is described as follows: Formation of ingredients derived from rikkunshito in formulation, blood, and urine (S11 Table summary). To be noted: after rikkunshito administration, per ingredient in the formulation; for Formation of ingredients: form found in Urine: BQL = below the quantification limit.
A short description of data set [5]: Exploratory trial: ingredients in β-glucuronidase (enzyme)-treated plasma. In kind it is in vivo, human. To be noted: β-glucuronidase-treated, rikkunshito 7.5 g, mean ± S.D., n = 4. Here is the method: In the first exploratory trial, 20-mL blood samples were collected from the cutaneous vein in the subjects’ forearm via a blood sampling tube that contained heparin at 0 (preadministration), 0.5, 1, 2, 4, and 8 h after a single oral administration of rikkunshito (Lot E24652). The dose of rikkunshito used in this trial was 7.5 g/day, which is the clinical daily dose, to widely explore rikkunshito-derived ingredients that enter the blood. Along with plasma, urine samples were collected at three points: between dinner and bedtime (preadministration), between 0 and 4 h after administration, and between 4 and 8 h after administration. The blood was immediately centrifuged at 1700 ×g for 10 min to obtain plasma. Plasma and urine fractions were stored at −80°C or lower until analysis.
For quantification of 30 ingredients other than atractylodin and synephrine, 25 µL of standard solution or methanol was added to 500 µL plasma or urine samples followed by mixing. Atractylenolide III or digoxin (IS) solution (50 μL) was added to the solutions followed by mixing. For urine, 400 µL of blank plasma was added to the solutions. Ammonium acetate solution (100 mM, 100 or 400 µL) was added to the solutions followed by mixing. For enzymatic treatment, plasma and urine samples were incubated with β-glucuronidase (100 units in 100 mM ammonium acetate) for 2 h at 37°C. A solid-phase cartridge (OASIS HLB, 30 mg/1cc, Waters) was conditioned with methanol and 10 mM ammonium acetate solution, and the samples were loaded onto the cartridge. The cartridge was washed water : methanol (9:1, v/v), and 1.5 mL of methanol and 30 µL of propylene glycol were added to the cartridge to elute the analytes. The mixtures were dried at 25°C under a stream of nitrogen gas. Furthermore, 100 μL of 10 mM ammonium acetate : methanol (8:2, v/v) was added to the dried samples followed by mixing and sonication. The solutions were filtered (0.22 µm) and followed by injection into the LC–MS/MS system. […] Those analytical conditions are summarized in S2 Table and S3 Table.

Data set [6] in a line: Exploratory trial: amount of rikkunshito ingredients in urine. It counts as in vivo, human. The following applies: mean ± S.D., n = 4; for Amount in urine, 4–8 h: 4–8 h after single oral rikkunshito 7.5 g. The procedure, abridged: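 Subjects took single oral 7.5 g rikkunshito; urine collected pre-dose and 0–4 h and 4–8 h post-dose, stored at −80 °C or lower. Synephrine quantified by LC–MS/MS after plate cleanup with erythromycin IS; other ingredients after β-glucuronidase (2 h, 37 °C) and HLB solid-phase extraction.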

[7] abbreviates: refrigerator 128 days, higher concentration (10 / 4 / 50 ng/mL).
[8] abbreviates: refrigerator 128 days, lower concentration (0.1 / 0.04 / 0.5 ng/mL).
The mark [9] stands for this setting: refrigerator (1°C to 8°C) 54 days, 0.1 mg/mL (naringenin 0.5 mg/mL).
The mark [10] stands for this setting: refrigerator (1°C to 8°C) 129 days, 0.1 mg/mL (naringenin 0.5 mg/mL).

Compound `CC1(C)[C@@H](O)CC[C@]2(C)[C@H]3C(=O)C=C4[C@@H]5C[C@@](C)(C(=O)O)CC[C@]5(C)CC[C@@]4(C)[C@]3(C)CC[C@@H]12` [18β-Glycyrrhetinic acid] yielded a peak concentration (Cmax) in data set [1] (human, in vivo) of 58.2 ng/mL. Further, the “Working solution stability, RR” value in data set [2] (8 ng/mL, refrigerator (1°C to 8°C) for 53 days) came out at 108.4%; in data set [2] (800 ng/mL, refrigerator (1°C to 8°C) for 53 days), 100.7%. For the same compound, the “Stock solution stability, RR” value was 54 days: 100.0% in data set [2] (0.8 mg/mL, refrigerator (1°C to 8°C) for 54 days) and 129 days: 100.0% in data set [2] (0.8 mg/mL, refrigerator (1°C to 8°C) for 129 days).
For `COc1ccc(-c2oc3c(OC)c(OC)c(OC)c(OC)c3c(=O)c2OC)cc1OC` [Heptamethoxyflavone, 3,3′,4′,5,6,7,8-heptamethoxyflavone], the “Plasma concentration, 0 h” value in data set [1] (mean ± S.D., n = 4) is on record as “BQL”. Besides, in data set [1] (human, plasma, 0.5 h after single oral rikkunshito 7.5 g, mean ± S.D., n = 4, read-out: Plasma concentration, 0.5 h), the concentration at 0.5 h was found to be 0.171 ± 0.18 ng/mL. This compound came in with a concentration at 1 h in data set [1] (human, plasma, 1 h after single oral rikkunshito 7.5 g, mean ± S.D., n = 4) of 0.253 ± 0.301 ng/mL. In data set [1] (human, plasma, 2 h after single oral rikkunshito 7.5 g, mean ± S.D., n = 4, read-out: Plasma concentration, 2 h), the concentration at 2 h was determined as 0.157 ± 0.187 ng/mL. Also, the concentration at 4 h in data set [1] (human, plasma, 4 h after single oral rikkunshito 7.5 g, mean ± S.D., n = 4, read-out: Plasma concentration, 4 h) came out at 0.0569 ± 0.0821 ng/mL. Moreover, the concentration at 8 h in data set [1] (human, plasma, 8 h after single oral rikkunshito 7.5 g, mean ± S.D., n = 4, read-out: Plasma concentration, 8 h) is 0.00613 ± 0.0123 ng/mL. The “Known pharmacology activities: ghrelin secretion” value in the data set with ghrelin secretion is “Ghrelin secretion promoting activity [14, 15]”. In addition, the “Acylated ghrelin level in blood” value in data set [3] is listed as “suppressed the decrease of the acylated ghrelin level in blood in a concentration-dependent manner”. Moreover, in the data set with 5-HT2BR, the 5-HT2BR inhibitory/antagonistic activity entry is “most potent 5-HT2BR antagonistic activity among all rikkunshito ingredients”. In addition, the “Working solution stability, RR” value in data set [2] (refrigerator 53 days, higher concentration (pachymic acid 10, heptamethoxyflavone 4, naringenin 50 ng/mL)) is on record as 100.4%; in data set [2] (refrigerator 53 days, lower concentration (pachymic acid 0.1, heptamethoxyflavone 0.04, naringenin 0.5 ng/mL)), 109.3%; in data set [2] (setting [7]), 98.8%; in data set [2] (setting [8]) it was 101.6%. The entries for the “Stock solution stability, RR” value in data set [2] (setting [9]) and in data set [2] (setting [10]) were 54 days: 98.7% and 129 days: 92.7%, respectively. In data set [4], the “Formation of ingredients: form found in Blood” value (“Formation … in Blood” for short) is recorded as “Heptamethoxyflavone”. For the same compound, the “Formation of ingredients: form found in Urine” value (shortened to “Formation … in Urine”) in data set [4] is recorded as “BQL”.
The compound `O=C1C[C@@H](c2ccc(O)cc2)Oc2cc(O)cc(O)c21` [Naringenin] came in with a concentration at 0 h in data set [1] (human, in vivo, po) of 0.378 ± 0.755 ng/mL. In addition, the concentration at 0.5 h was 0.0358 ± 0.0715 ng/mL in data set [1] (human, in vivo, po) and 0.311 ± 0.211 ng/mL in data set [5] (human, plasma, oral, 0.5 h). For the same compound, the concentration at 2 h in data set [1] (human, in vivo, po) was determined as 0.0813 ± 0.105 ng/mL; in data set [5] (human, plasma, oral, 2 h, read-out: Plasma concentration in enzyme-treated plasma, 2 h) it was 0.351 ± 0.311 ng/mL. Also, the concentration at 4 h in data set [1] (human, in vivo, po) is 0.0715 ± 0.0831 ng/mL; in data set [5] (human, plasma, oral, 4 h, read-out: Plasma concentration in enzyme-treated plasma, 4 h), 0.861 ± 0.749 ng/mL. For the same compound, the “Plasma concentration, 1 h” value in data set [1] (in vivo, po) is reported as “BQL”. In addition, in data set [1] (in vivo, po), the “Plasma concentration, 8 h” value is given as “BQL”. Further, the concentration at 1 h in data set [5] (human, plasma, oral, 1 h) came out at 0.261 ± 0.188 ng/mL. For the same compound, the concentration at 8 h in data set [5] (human, plasma, oral, 8 h, read-out: Plasma concentration in enzyme-treated plasma, 8 h) stood at 0.156 ± 0.234 ng/mL. In addition, in data set [5] (0 h (preadministration)), the “Plasma concentration in enzyme-treated plasma, 0 h” value is given as “BQL”. The “Amount in urine, 0–4 h” value in data set [6] (0–4 h after single oral rikkunshito 7.5 g) is listed as “BQL”. Further, the entries for the “Amount in urine, 4–8 h” value in data set [6] and in data set [6] (listed as naringenin) were 2380 ± 2940 ng and 2,380 ng, respectively. In addition, the “Amount in urine, Pre” value in data set [6] (preadministration (between dinner and bedtime)) is reported as “BQL”. In addition, in the data set on 5-HT2BR, the 5-HT2BR inhibitory/antagonistic activity entry is reported as “most potent 5-HT2BR antagonistic activity among all rikkunshito ingredients”. Also, the “Working solution stability, RR” value in data set [2] (setting [7]) turned out to be 99.8%; in data set [2] (setting [8]) it was 102.6%. The “Stock solution stability, RR” value was 54 days: 97.5% in data set [2] (setting [9]) and 129 days: 96.7% in data set [2] (setting [10]). In addition, the “Formation … in Blood” value in data set [4] is reported as “Naringenin Conjugate metabolites of naringenin^a”. The “Formation … in Urine” value in data set [4] is “Naringenin”.
As to `COc1ccc(-c2cc(=O)c3c(OC)c(OC)c(OC)c(OC)c3o2)cc1OC` [Nobiletin], the “Plasma concentration, 0 h” value in data set [1] (mean ± S.D., n = 4) is “BQL”. In addition, the “Plasma concentration, 0.5 h” value in data set [1] (0.5 h after single oral rikkunshito 7.5 g, mean ± S.D., n = 4) was determined as 0.047 ± 0.0474 ng/mL. The “Plasma concentration, 1 h” value in data set [1] (1 h after single oral rikkunshito 7.5 g, mean ± S.D., n = 4) came to 0.0282 ± 0.0389 ng/mL. For the same compound, the “Plasma concentration, 2 h” value in data set [1] (2 h after single oral rikkunshito 7.5 g, mean ± S.D., n = 4) is 0.00545 ± 0.0109 ng/mL. Moreover, the “Plasma concentration, 4 h” value in data set [1] (4 h after single oral rikkunshito 7.5 g, mean ± S.D., n = 4) is “BQL”. Also, the “Plasma concentration, 8 h” value in data set [1] (8 h after single oral rikkunshito 7.5 g, mean ± S.D., n = 4) is “BQL”. Also, the 5-HT2BR inhibitory/antagonistic activity entry in the data set on 5-HT2BR is listed as “most potent 5-HT2BR antagonistic activity among all rikkunshito ingredients”. Besides, the “Working solution stability, RR” value in data set [2] (0.04 ng/mL, refrigerator (1°C to 8°C) for 53 days) turned out to be 95.0%; in data set [2] (0.04 ng/mL, refrigerator (1°C to 8°C) for 128 days), 89.0%; in data set [2] (4 ng/mL, refrigerator (1°C to 8°C) for 53 days), 102.6%; in data set [2] (4 ng/mL, refrigerator (1°C to 8°C) for 128 days), 109.6%. The “Stock solution stability, RR” value in data set [2] (0.1 mg/mL, refrigerator (1°C to 8°C) for 54 days) is recorded as 54 days: 99.8%; in data set [2] (0.1 mg/mL, refrigerator (1°C to 8°C) for 129 days), 129 days: 89.1%. Besides, the “Formation … in Blood” value in data set [4] is on record as “Nobiletin”. In addition, the “Formation … in Urine” value in data set [4] is recorded as “BQL”.

For orientation: Cmax means the peak of the concentration-time curve.
